For eleven molecules, IC50 results are on record in US11655235B2, “Pyrrolidine and piperidine compounds” (YUHAN CORPORATION, priority 2019, dated 2023).

What all share (type): biochemical
Assay [1] has as its target T1, recombinant human DPP7 (Homo sapiens, UniProt Q9UHL4).
T1 construct: purchased R&D Systems
In words: DPP7 inhibition, fluorogenic substrate Lys-Pro-AMC. The note with it: recombinant human DPP7. Summed up:
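Inhibitors are titrated in an 8-point series into the enzyme's assay buffer (DMSO no more than 0.5%). Substrate cleavage at 25 °C is followed by fluorescence, excitation 380 nm and emission 460 nm. IC50 values come from a four-variable logistic model.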

The target of assay [2] is T2, recombinant human DPP9 (Homo sapiens, UniProt Q86TI2).
T2 construct: purchased R&D Systems
T2 sequence (Q86TI2 whole entry): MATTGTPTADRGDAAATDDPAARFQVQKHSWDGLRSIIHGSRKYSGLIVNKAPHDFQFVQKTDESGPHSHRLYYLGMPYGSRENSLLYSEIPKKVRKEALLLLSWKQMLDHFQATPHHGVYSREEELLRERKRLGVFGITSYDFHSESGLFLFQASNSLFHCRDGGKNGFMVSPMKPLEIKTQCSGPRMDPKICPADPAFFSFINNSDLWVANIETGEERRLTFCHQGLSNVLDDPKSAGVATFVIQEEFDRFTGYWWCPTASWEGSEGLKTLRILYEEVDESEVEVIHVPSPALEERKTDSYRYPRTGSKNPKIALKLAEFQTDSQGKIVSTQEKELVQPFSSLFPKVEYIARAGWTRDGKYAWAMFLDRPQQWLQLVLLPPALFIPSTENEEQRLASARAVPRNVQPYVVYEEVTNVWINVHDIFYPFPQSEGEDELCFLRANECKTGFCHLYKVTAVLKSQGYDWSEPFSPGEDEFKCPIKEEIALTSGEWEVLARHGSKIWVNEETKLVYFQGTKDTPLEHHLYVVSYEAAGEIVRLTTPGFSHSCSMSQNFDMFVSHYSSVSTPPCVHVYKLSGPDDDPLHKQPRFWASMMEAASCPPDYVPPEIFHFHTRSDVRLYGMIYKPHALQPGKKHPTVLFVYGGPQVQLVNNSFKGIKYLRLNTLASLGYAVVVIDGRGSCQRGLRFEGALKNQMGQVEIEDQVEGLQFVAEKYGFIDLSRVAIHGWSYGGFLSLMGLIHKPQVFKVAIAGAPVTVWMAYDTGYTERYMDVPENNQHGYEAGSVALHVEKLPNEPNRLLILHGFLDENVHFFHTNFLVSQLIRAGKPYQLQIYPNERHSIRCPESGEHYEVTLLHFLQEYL
In words: DPP9 inhibition, fluorogenic substrate H-Gly-Pro-AMC. The note with it: recombinant human DPP9. As to the method:
(§1) The compounds according to the present technology were evaluated in terms of the inhibitory effect on the activity of dipeptidyl peptidases including FAP by using a substrate producing fluorescent substances upon enzymatic decomposition. The test was conducted at 25° C. to get a final reaction volume of 100 μL in a 96 black well plate. […] Briefly, the test compounds were dissolved in dimethyl sulfoxide (DMSO) at a concentration of 20 mM and then subjected to serial dilution, thereby creating an 8 point curve. As for the control group, a 6 point curve created by serial dilution of Talabostat in the same buffer solution was used. Fluorescence intensity was measured using a microplate reader (Flexstation3, Molecular Devices) under the wavelength condition exciting at 380 nm and reading the emission at 460 nm. The inhibitory effect of the test compounds was measured as a decrease (%) in the signal rate as compared to the control group without any inhibitor. Data was fixed to a logistic model with four variables and IC50 value was calculated using GraphPad Prism program. As for recombinant human DPP4 (R&D Systems), 25 mM tris (pH 8.0) buffer as a buffer solution and H-Gly-Pro-AMC (Bachem) as a substrate were used. As for recombinant human DPP7 (R&D Systems), 25 mM MES (pH 6.0) buffer as a buffer solution and Lys-Pro-AMC (Bachem) as a substrate were used. As for recombinant human DPP8 (PBS Bioscience), as a buffer solution, a 10 mM tris (pH 7.4) buffer comprising 10 mM of magnesium chloride and 0.05% of Tween 20, and Z-Ala-Pro-AMC (BPS Bioscience) as a substrate were used. As for recombinant human DPP9 (R&D Systems), a 25 mM tris (pH 8.0) buffer as a buffer solution and H-Gly-Pro-AMC (Bachem) as a substrate were used. As for recombinant human PREP (R&D System), as a buffer solution, a 25 mM tris (pH 7.5) buffer comprising 250 mM sodium chloride and 2.5 mM DTT (Dithiolthreitol), and Z-Gly-Pro-AMC (Bachem) as a substrate were used. The evaluation was made by using 10 ng of DPP4, PDD7, and PREP, 20 ng of DPP8, and 50 ng of DPP9 based on the final reaction. In the evaluation of DPP4, the test compounds were subjected to serial dilution in a buffer under the condition containing up to 0.1% of DMSO. In the evaluation of DPP7, DPP8, DPP9, and PREP, the test compounds were subjected to serial dilution in each buffer under the condition containing up to 0.5% of DMSO.

Assay [3] concerns the target T3, recombinant human PREP (Homo sapiens, UniProt P48147).
T3 construct: purchased R&D System
T3 sequence (P48147 1-710): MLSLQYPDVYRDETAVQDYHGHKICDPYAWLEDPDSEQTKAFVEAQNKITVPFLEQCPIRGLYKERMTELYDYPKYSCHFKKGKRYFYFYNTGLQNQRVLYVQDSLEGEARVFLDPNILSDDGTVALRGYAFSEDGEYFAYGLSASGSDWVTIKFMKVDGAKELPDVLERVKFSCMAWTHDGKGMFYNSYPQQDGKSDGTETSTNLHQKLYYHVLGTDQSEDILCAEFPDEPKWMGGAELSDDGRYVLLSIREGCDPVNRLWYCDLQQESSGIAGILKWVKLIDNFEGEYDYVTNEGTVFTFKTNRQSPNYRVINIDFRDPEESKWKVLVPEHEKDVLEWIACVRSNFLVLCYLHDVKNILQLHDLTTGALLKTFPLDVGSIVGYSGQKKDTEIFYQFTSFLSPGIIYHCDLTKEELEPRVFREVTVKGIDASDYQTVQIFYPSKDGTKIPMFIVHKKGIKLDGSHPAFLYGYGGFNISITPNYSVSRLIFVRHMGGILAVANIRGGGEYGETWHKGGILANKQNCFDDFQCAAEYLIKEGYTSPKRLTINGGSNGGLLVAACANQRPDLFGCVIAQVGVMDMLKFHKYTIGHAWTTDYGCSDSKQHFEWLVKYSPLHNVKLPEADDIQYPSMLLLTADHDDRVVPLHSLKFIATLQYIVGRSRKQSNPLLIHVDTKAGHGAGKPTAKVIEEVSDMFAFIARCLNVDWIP
In words: PREP inhibition, fluorogenic substrate Z-Gly-Pro-AMC. The note with it: Inhibitory Activity (IC50, nM) PREP, recombinant human PREP. How it is done:
as §1

For assay [4], the target named is T4, Recombinant human FAP (Homo sapiens, UniProt Q12884).
T4 construct: purchased R&D systems
T4 sequence (Q12884 1-760): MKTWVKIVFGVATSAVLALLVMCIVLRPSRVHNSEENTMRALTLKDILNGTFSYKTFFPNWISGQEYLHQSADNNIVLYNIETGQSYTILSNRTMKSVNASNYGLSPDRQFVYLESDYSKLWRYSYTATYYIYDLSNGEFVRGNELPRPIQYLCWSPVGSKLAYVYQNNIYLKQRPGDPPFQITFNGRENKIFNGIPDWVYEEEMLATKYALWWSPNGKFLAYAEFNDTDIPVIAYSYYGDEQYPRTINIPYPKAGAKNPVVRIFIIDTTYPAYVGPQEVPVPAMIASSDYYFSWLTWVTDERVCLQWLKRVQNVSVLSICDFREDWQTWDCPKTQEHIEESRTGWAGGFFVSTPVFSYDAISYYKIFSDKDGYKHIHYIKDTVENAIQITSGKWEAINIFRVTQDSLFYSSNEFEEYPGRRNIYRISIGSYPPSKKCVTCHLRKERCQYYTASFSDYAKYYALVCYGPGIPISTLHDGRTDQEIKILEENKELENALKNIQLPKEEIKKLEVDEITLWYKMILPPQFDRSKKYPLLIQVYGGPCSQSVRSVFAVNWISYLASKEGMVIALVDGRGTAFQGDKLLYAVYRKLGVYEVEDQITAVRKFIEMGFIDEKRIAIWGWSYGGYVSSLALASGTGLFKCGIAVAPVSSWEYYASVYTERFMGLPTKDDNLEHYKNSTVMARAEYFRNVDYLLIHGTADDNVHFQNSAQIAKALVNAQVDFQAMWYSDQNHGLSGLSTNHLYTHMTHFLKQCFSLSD
In words: FAP FRET assay, FGF21-sequence FRET peptide substrate. The note with it: FRET peptide with human FGF21 sequence, 6 μM, 37° C. The procedure, abridged: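 FRET peptide bearing human FGF21 sequence (6 μM final) cleaved by 10 ng recombinant human FAP at 37° C in HEPES pH 7.2 buffer with NaCl, BSA and EDTA, DMSO up to 0.1%. Signal-rate decrease versus uninhibited control fitted to a four-variable logistic model for IC50.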

In assay [5] the target is DPP4 (Homo sapiens, UniProt P27487). In words: DPP4 inhibition, fluorogenic substrate H-Gly-Pro-AMC. Set-up: purchased R&D Systems. The note with it: recombinant human DPP4.
DPP4, sequence (P27487 whole entry): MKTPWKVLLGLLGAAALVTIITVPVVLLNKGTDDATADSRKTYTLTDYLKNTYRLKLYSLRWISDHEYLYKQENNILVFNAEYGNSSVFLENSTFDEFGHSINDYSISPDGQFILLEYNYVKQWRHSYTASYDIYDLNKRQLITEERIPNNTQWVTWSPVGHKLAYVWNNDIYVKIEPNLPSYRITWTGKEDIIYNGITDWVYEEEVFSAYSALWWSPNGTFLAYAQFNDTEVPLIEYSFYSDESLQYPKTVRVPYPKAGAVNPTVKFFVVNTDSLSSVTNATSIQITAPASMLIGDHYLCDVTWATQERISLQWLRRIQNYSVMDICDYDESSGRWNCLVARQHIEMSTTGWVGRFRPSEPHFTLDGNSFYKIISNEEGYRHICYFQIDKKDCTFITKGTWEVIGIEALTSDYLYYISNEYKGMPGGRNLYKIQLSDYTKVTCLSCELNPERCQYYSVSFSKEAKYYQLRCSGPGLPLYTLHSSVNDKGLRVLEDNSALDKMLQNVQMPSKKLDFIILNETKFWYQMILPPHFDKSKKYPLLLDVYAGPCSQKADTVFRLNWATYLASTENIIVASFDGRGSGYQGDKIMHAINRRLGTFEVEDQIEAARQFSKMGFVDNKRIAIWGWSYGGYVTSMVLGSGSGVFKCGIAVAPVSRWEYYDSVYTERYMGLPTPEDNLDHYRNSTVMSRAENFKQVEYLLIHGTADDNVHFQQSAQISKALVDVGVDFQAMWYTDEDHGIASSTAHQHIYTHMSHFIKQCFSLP

As usually defined, the IC50 is the concentration at which inhibition is half-maximal. In the case of `N#C[C@@H]1C[C@H](F)CN1C(=O)CN1CC[C@@H](Nc2cccc3ncc(Cl)cc23)C1` [Example 185, (2S,4S)-4-fluoro-1-[2-[(3R)-3-[(3-chloro-5-quinolyl)amino]pyrrolidin-1-yl]acetyl]pyrrolidine-2-carbonitrile], the IC50 was 1300 nM in assay [1]; 2750 nM in assay [2]; 3550 nM in assay [3]; 2.1 nM in assay [4]; 995 nM in assay [5].

Take `N#C[C@@H]1C[C@H](F)CN1C(=O)CN1CC[C@@H](Nc2ccc(OC(F)(F)F)c3ncccc23)C1` [Example 186, (2S,4S)-4-fluoro-1-[2-[(3R)-3-[[8-(trifluoromethoxy)-5-quinolyl]amino]pyrrolidin-1-yl]acetyl]pyrrolidine-2-carbonitrile]: the IC50 in assay [1] came to 2020 nM; in assay [2], 4410 nM; in assay [3], 3590 nM; in assay [4], 2.7 nM; in assay [5], 2220 nM.

As for `N#C[C@@H]1C[C@H](F)CN1C(=O)CN1CC[C@@H](Nc2ccnc3c(Cl)cccc23)C1` [Example 189, (2S,4S)-4-fluoro-1-[2-[(3R)-3-[(8-chloro-4-quinolyl)amino]pyrrolidin-1-yl]acetyl]pyrrolidine-2-carbonitrile], the IC50 in assay [1] turned out to be 2580 nM; in assay [2] it was 1510 nM; in assay [3] it was 1150 nM; in assay [4], 10 nM; in assay [5], 3500 nM.

For the molecule `Cc1cccc2c(N[C@@H]3CCN(CC(=O)N4C[C@@H](F)C[C@H]4C#N)C3)ccnc12` [Example 190, (2S,4S)-4-fluoro-1-[2-[(3R)-3-[(8-methyl-4-quinolyl)amino]pyrrolidin-1-yl]acetyl]pyrrolidine-2-carbonitrile], the IC50 was 63.7 nM in assay [1]; 1390 nM in assay [2]; 1250 nM in assay [3]; 16.7 nM in assay [4]; 12500 nM in assay [5].

`N#C[C@@H]1CCCN1C(=O)CN1CC[C@@H](Nc2cc(F)cc3ncccc23)C1` [Example 197, (2S)-1-[2-[(3R)-3-[(7-fluoro-5-quinolyl)amino]pyrrolidin-1-yl]acetyl]pyrrolidine-2-carbonitrile]: the IC50 in assay [1] was 4120 nM; in assay [2] it was 23800 nM; in assay [3], 14700 nM; in assay [4], 5.2 nM; in assay [5], 13400 nM.

For `COc1cc(N[C@@H]2CCN(CC(=O)N3CCC[C@H]3C#N)C2)c2cccnc2c1` [Example 198, (2S)-1-[2-[(3R)-3-[(7-methoxy-5-quinolyl)amino]pyrrolidin-1-yl]acetyl]pyrrolidine-2-carbonitrile], the IC50 in assay [1] is 901 nM; in assay [2], 14900 nM; in assay [3], 2920 nM; in assay [4], 8.6 nM; in assay [5] it was 9460 nM.

Consider `Cc1ccc(N[C@@H]2CCN(CC(=O)N3CCC[C@H]3C#N)C2)c2cccnc12` [Example 200, (2S)-1-[2-[(3R)-3-[(8-methyl-5-quinolyl)amino]pyrrolidin-1-yl]acetyl]pyrrolidine-2-carbonitrile], for which the half-maximal inhibitory concentration (IC50) in assay [1] was 1700 nM; in assay [2], 27300 nM; in assay [3] it was 6090 nM; in assay [4], 6.3 nM; in assay [5] it was 5510 nM.

For `N#C[C@@H]1CCCN1C(=O)CN1CC[C@@H](Nc2cccc3ncc(Cl)cc23)C1` [Example 203, (2S)-1-[2-[(3R)-3-[(3-chloro-5-quinolyl)amino]pyrrolidin-1-yl]acetyl]pyrrolidine-2-carbonitrile], the IC50 in assay [1] was 3260 nM; in assay [2] it was 11200 nM; in assay [3], 12200 nM; in assay [4] it was 0.9 nM; in assay [5], 4660 nM.

Take `COc1cnc2cccc(N[C@@H]3CCN(CC(=O)N4CCC[C@H]4C#N)C3)c2c1` [Example 204, (2S)-1-[2-[(3R)-3-[(3-methoxy-5-quinolyl)amino]pyrrolidin-1-yl]acetyl]pyrrolidine-2-carbonitrile]: the half-inhibitory concentration (IC50) in assay [1] turned out to be 3870 nM; in assay [2], 16200 nM; in assay [3], 11500 nM; in assay [4], 2.1 nM; in assay [5], 6200 nM.

Turning to `COc1cnc2cccc(N[C@@H]3CCN(CC(=O)N4C[C@@H](F)C[C@H]4C#N)C3)c2c1` [Example 205, (2S,4S)-4-fluoro-1-[2-[(3R)-3-[(3-methoxy-5-quinolyl)amino]pyrrolidin-1-yl]acetyl]pyrrolidine-2-carbonitrile], the IC50 in assay [1] is 1760 nM; in assay [2], 3040 nM; in assay [3], 7500 nM; in assay [4] it was 2.6 nM; in assay [5], 796 nM.

Consider `Cc1cnc2cccc(N[C@@H]3CCN(CC(=O)N4CCC[C@H]4C#N)C3)c2c1` [Example 208, (2S)-1-[2-[(3R)-3-[(3-methyl-5-quinolyl)amino]pyrrolidin-1-yl]acetyl]pyrrolidine-2-carbonitrile], for which the IC50 in assay [1] turned out to be 1370 nM; in assay [2], 19200 nM; in assay [3] it was 12000 nM; in assay [4] it was 1.7 nM; in assay [5], 6510 nM.
